ChEMBL document CHEMBL4393715, “Design, synthesis and biological evaluation of the thioether-containing lenalidomide analogs with anti-proliferative activities” (Eur J Med Chem, 2019)
pIC50: −log10 of the molar value.

Experiments:
MV4-11 = test: Antiproliferative activity against human MV411 cells measured after 168 hrs by CellTiter96 Aqueous non-radioactive cell proliferation assay; assay type: functional, cell-based; details: MV4-11, 168 h
[1] = Antiproliferative activity against human Mino cells measured after 72 hrs by CellTiter96 Aqueous non-radioactive cell proliferation assay; assay type: functional, cell-based
MM1.S = test: Antiproliferative activity against human MM1S cells measured after 168 hrs by CellTiter96 Aqueous non-radioactive cell proliferation assay; assay type: functional, cell-based
PBMC [2] = test: Antiinflammatory activity in human PBMC cells assessed as reduction in LPS-induced TNF-alpha production preincubated for 1 hr followed by LPS addition and measured after 18 to 20 hrs by ELISA; assay type: functional, cell-based
[3] = MRT (infinity) in BALB/c mouse at 5 mg/kg, iv and measured up to 24 hrs by LC-MS/MS analysis; assay type: ADME, organism-based; details: in vivo
[4] = AUC (infinity) in BALB/c mouse at 5 mg/kg, iv and measured up to 24 hrs by LC-MS/MS analysis; assay type: ADME, organism-based; design: dose 5 mg/kg, route intravenous, time infinity; details: in vivo
[5] = Clearance in BALB/c mouse at 5 mg/kg, iv and measured up to 24 hrs by LC-MS/MS analysis; assay type: ADME, organism-based; details: in vivo
[6] = Volume of distribution at steady state in BALB/c mouse at 5 mg/kg, iv and measured up to 24 hrs by LC-MS/MS analysis; assay type: ADME, organism-based; details: in vivo, read-out: Vdss
[7] = Half-life in BALB/c mouse at 5 mg/kg, iv and measured up to 24 hrs by LC-MS/MS analysis; assay type: ADME, organism-based; details: in vivo
[8] = AUC (infinity) in BALB/c mouse at 20 mg/kg, po and measured up to 24 hrs by LC-MS/MS analysis; assay type: ADME, organism-based; design: dose 20 mg/kg, route oral, time infinity; details: in vivo
[9] = Terminal elimination half life in BALB/c mouse at 20 mg/kg, po and measured up to 24 hrs by LC-MS/MS analysis; assay type: ADME, organism-based; details: in vivo, read-out: LambdaZ (converted)
[10] = Tmax in BALB/c mouse at 20 mg/kg, po and measured up to 24 hrs by LC-MS/MS analysis; assay type: ADME, organism-based; details: in vivo
[11] = Cmax in BALB/c mouse at 20 mg/kg, po and measured up to 24 hrs by LC-MS/MS analysis; assay type: ADME, organism-based; design: dose 20 mg/kg, route oral; details: in vivo
[12] = Oral bioavailability in BALB/c mouse at 20 mg/kg and measured up to 24 hrs by LC-MS/MS analysis; assay type: ADME, organism-based; details: in vivo
[13] = Toxicity in CB-17 SCID mouse xenografted with human RPMI8226 cells assessed as body weight at 60 mg/kg/day, po and measured after day 18 (reference value: 20.1 to 20.4 g); assay type: organism-based; details: in vivo
RPMI-8226 [14] = test: Antitumour activity against human RPMI8226 cells xenografted in CB-17 SCID mouse assessed as tumour volume at 60 mg/kg/day, po measured after day 18 (reference value: 153 to 154 mm3); assay type: functional
RPMI-8226 [15] = test: Antitumour activity against human RPMI8226 cells xenografted in CB-17 SCID mouse assessed as relative tumour volume at 60 mg/kg/day, po measured twice a week for 21 days; assay type: functional
RPMI-8226 [16] = test: Antitumour activity against human RPMI8226 cells xenografted in CB-17 SCID mouse assessed as inhibition of tumour growth at 60 mg/kg/day, po measured twice a week for 21 days relative to control; assay type: functional; design: scale not given: the % may be the effect or the level left
[17] = Toxicity in CB-17 SCID mouse xenografted with human RPMI8226 cells assessed as mortality at 60 mg/kg/day, po and measured after day 18; assay type: organism-based; details: in vivo
Z-138 = test: Antiproliferative activity against human Z138 cells measured after 72 hrs by CellTiter96 Aqueous non-radioactive cell proliferation assay; assay type: functional, cell-based; details: Z-138, 72 h
JeKo-1 = test: Antiproliferative activity against human JeKo1 cells measured after 72 hrs by CellTiter96 Aqueous non-radioactive cell proliferation assay; assay type: functional, cell-based; details: JeKo-1, 72 h
Raji = test: Antiproliferative activity against human Raji cells measured after 168 hrs by CellTiter96 Aqueous non-radioactive cell proliferation assay; assay type: functional, cell-based
PBMC [18] = test: Cytotoxicity against human PBMC cells by CellTiter96 Aqueous non-radioactive cell proliferation assay; assay type: cell-based
U-266 = test: Antiproliferative activity against human U266 cells measured after 72 hrs by CellTiter96 Aqueous non-radioactive cell proliferation assay; assay type: functional, cell-based; details: U-266, 72 h
RPMI-8226 [19] = test: Antiproliferative activity against human RPMI8226 cells measured after 72 hrs by CellTiter96 Aqueous non-radioactive cell proliferation assay; assay type: functional, cell-based; details: RPMI-8226, 72 h
THP-1 = test: Antiproliferative activity against human THP1 cells measured after 168 hrs by CellTiter96 Aqueous non-radioactive cell proliferation assay; assay type: functional, cell-based; details: THP-1, 168 h
Kasumi 1 = test: Antiproliferative activity against human Kasumi-1 cells measured after 168 hrs by CellTiter96 Aqueous non-radioactive cell proliferation assay; assay type: functional, cell-based; details: Kasumi 1, 168 h

pIC50 (MV4-11) | pIC50 (MM1.S) | Structure (SMILES) | pIC50 [1] | other results
< 4.70 | 8.96 | O=C1CCC(N2Cc3c(SCc4cccc(Cl)c4)cccc3C2=O)C(=O)N1 (stereo not drawn) | 8.62 | 
 |  | CC1CN(C(=O)c2ccc(CSc3cccc4c3CN(C3CCC(=O)NC3=O)C4=O)cc2)CC(C)O1 (stereo not drawn) | 8.19 | 
 |  | NC(=O)c1ccc(CSc2cccc3c2CN(C2CCC(=O)NC2=O)C3=O)cc1 (stereo not drawn) | 7.45 | 
 |  | Nc1cccc2c1C(=O)N(C1CCC(=O)NC1=O)C2 (stereo not drawn) |  | pIC50 (PBMC [2]): < 4.00
< 4.70 | 8.96 | CCCCCSc1cccc2c1CN(C1CCC(=O)NC1=O)C2=O (stereo not drawn) | 6.80 | 
 |  | COC(=O)c1ccc(CSc2cccc3c2CN(C2CCC(=O)NC2=O)C3=O)cc1 (stereo not drawn) | 8.13 | 
< 4.70 | 8.74 | Cc1ccccc1CSc1cccc2c1CN(C1CCC(=O)NC1=O)C2=O (stereo not drawn) | 7.78 | 
 |  | O=C1CCC(N2Cc3c(cccc3S(=O)(=O)Cc3ccc(CN4CCOCC4)cc3)C2=O)C(=O)N1 (stereo not drawn) | < 4.70 | 
< 4.70 | 8.85 | N#Cc1cccc(CSc2cccc3c2CN(C2CCC(=O)NC2=O)C3=O)c1 (stereo not drawn) | 8.10 | 
 |  | O=C1CCC(N2Cc3c(SCc4ccc(C(=O)N5CCOCC5)cc4)cccc3C2=O)C(=O)N1 (stereo not drawn) | 8.72 | 
 |  | Nc1ccc2c(c1)C(=O)N(C1CCC(=O)NC1=O)C2 (stereo not drawn) |  | pIC50 (PBMC [2]): < 4.00
< 4.70 | 9.05 | O=C1CCC(N2Cc3c(SCc4cccc(F)c4)cccc3C2=O)C(=O)N1 (stereo not drawn) | 8.37 | 
< 4.70 | 9.22 | O=C1CCC(N2Cc3c(SCc4ccccc4F)cccc3C2=O)C(=O)N1 (stereo not drawn) | 8.54 | 
9.70 | 9.52 | Cc1ccc(NC(=O)NCc2ccc3c(c2)CN(C2CCC(=O)NC2=O)C3=O)cc1Cl (stereo not drawn) | 9.40 | pIC50 (Z-138): 9.40; pIC50 (JeKo-1): 8.92; pIC50 (Raji): 7.69; pIC50 (PBMC [18]): 9.52; pIC50 (U-266): 8.70; pIC50 (RPMI-8226 [19]): 8.26; pIC50 (THP-1): 8.82; pIC50 (Kasumi 1): 9.10
< 4.70 | 8.54 | N#Cc1ccccc1CSc1cccc2c1CN(C1CCC(=O)NC1=O)C2=O (stereo not drawn) | 7.52 | 
< 4.70 | 8.89 | N#Cc1ccc(CSc2cccc3c2CN(C2CCC(=O)NC2=O)C3=O)cc1 (stereo not drawn) | 8.43 | pIC50 (Z-138): < 4.70; pIC50 (JeKo-1): < 4.70; pIC50 (Raji): < 4.70; pIC50 (PBMC [18]): < 4.70; pIC50 (U-266): < 4.70; pIC50 (RPMI-8226 [19]): 6.70; pIC50 (THP-1): < 4.70; pIC50 (Kasumi 1): < 4.70

Structure (SMILES) | pIC50 (MV4-11) | pIC50 (MM1.S) | pIC50 [1] | other results
O=C1CC[C@H](N2Cc3c(OCc4ccc(CN5CCOCC5)cc4)cccc3C2=O)C(=O)N1 [IBERDOMIDE] | < 4.70 | 7.89 | 6.95 | MRT inf [3]: 43.8 min; AUC(0-inf) [4]: 1940 ng·h/mL; clearance [5]: 43.5 mL/min/kg; Vd [6]: 1.9 L/kg; half-life [7]: 58.2 min; AUC(0-inf) [8]: 1810 ng·h/mL; half-life [9]: 54 min; Tmax [10]: 8.4 min; Cmax [11]: 2060 ng/mL; bioavailability [12]: 22.8%; Activity [13]: 22.1 g; Activity (RPMI-8226 [14]): 517 mm3; fold change (FC) (RPMI-8226 [15]): 3.42; Activity (RPMI-8226 [16]): 27.07%; Activity [17]: Non-Toxic
